Source: patent US11891359B2, “Prenylated psilocybin derivatives and methods of using” (ENVERIC B[…] INC., priority 2021, dated 2024)

Experiments:
5-HT1A receptor = molecular target: T1, 5-HT1A receptor (Homo sapiens, UniProt P08908); test: cAMP-Glo assay in +5-HT1A cells (CHO-K1/5-HT1A/Gα15) with 4 μM forskolin; type: cell-based; conditions: for cAMP / luminescence response to varying dosage of test molecule: +5HT1A cell cultures, fixed 4 μM forskolin, FIGS. 14H-14L
T1 construct: host or cells: CHO-K1 (co-expressing Gα15)
T1 sequence (P08908 1-422): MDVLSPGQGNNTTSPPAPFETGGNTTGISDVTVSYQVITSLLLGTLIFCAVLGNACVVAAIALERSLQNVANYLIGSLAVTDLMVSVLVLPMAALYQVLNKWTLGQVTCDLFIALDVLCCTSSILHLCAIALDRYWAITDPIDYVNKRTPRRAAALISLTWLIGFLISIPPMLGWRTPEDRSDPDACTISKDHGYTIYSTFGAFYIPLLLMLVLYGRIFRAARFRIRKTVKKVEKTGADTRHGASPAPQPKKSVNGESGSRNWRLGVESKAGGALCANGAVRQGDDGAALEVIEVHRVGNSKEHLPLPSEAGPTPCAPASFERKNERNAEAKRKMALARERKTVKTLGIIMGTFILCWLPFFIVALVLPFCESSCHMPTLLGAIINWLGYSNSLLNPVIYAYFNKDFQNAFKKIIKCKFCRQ
From the text: (§1) CHO-K1/Gα15 (GenScript, M00257) (−5-HT1A) and CHO-K1/5-HT1A/Gα15 (GenScript, M00330) (+5-HT1A) cells lines were used. Briefly, CHO-K1/Gα15 is a control cell line that constitutively expresses Gα15 which is a promiscuous Gq protein. This control cell line lacks any transgene encoding 5-HT1A receptors, but still responds to forskolin; thus, cAMP response to forskolin should be the same regardless of whether or not 5-HT1A agonists are present. Conversely, CHO-K1/5-HT1A/Gα15 cells stably express 5-HT1A receptor in the CHO-K1 host background. […] In+5-HT1A cells, Gα15 may be recruited in place of Gαi/o, which could theoretically dampen cAMP response (Rojas and Fiedler 2016, Front Cell Neurosci 10: 272). […] Cells were maintained in complete growth media as recommended by supplier (GenScript) which is constituted as follows: Ham's F12 Nutrient mix (HAM's F12, GIBCO #11765-047) with 10% fetal bovine serum (FBS) (Thermo Scientific #12483020), 200 μg/ml zeocin (Thermo Scientific #R25005) and/or 100 μg/ml hygromycin (Thermo Scientific #10687010). The cells were cultured in a humidified incubator with 37° C. and 5% CO2. Cells maintenance was carried out as recommended by the cell supplier. Briefly, vials with cells were removed from the liquid nitrogen and thawed quickly in 37° C. water bath. Just before the cells were completely thawed the vial's outside was decontaminated by 70% ethanol spray. The cell suspension was then retrieved from the vial and added to warm (37° C.) complete growth media, and centrifuged at 1,000 rpm for 5 minutes. The supernatant was discarded, and the cell pellet was then resuspended in another 10 ml of complete growth media, and added to the 10 cm cell culture dish (Greiner Bio-One #664160). The media was changed every third day until the cells were about 90% confluent. The ˜90% confluent cells were then split 10:1 for maintenance or used for experiment.
As 5-HT1A activation inhibits cAMP formation, the agonist activity of test molecules on 5-HT1A was measured via the reduction in the levels of cAMP produced due to application of 4 μM forskolin. The change in intracellular cAMP levels due to the treatment of novel molecules was measured using cAMP-Glo Assay kit (Promega #V1501). Briefly, +5-HT1A cells were seeded on 1-6 columns and base −5-HT1A cells were seeded on columns 7-12 of the white walled clear bottom 96-well plate (Corning, #3903). Both cells were seeded at the density of 30,000 cells/well in 100 μl complete growth media and cultured 24 hrs in humidified incubator at 37° C. and 5% CO2. On the experiment day, the media of cells was replaced with serum/antibiotic free culture media. […] Reduced ATP caused reduced conversion of luciferin to oxyluciferin, conferring diminished luminescence as the result of 5-HT1A activation. […]

5-HT2A receptor = molecular target: T2, 5-HT2A receptor (Homo sapiens, UniProt P28223); test: [3H]ketanserin competition binding assay (Scintillation Proximity Assay) on membranes containing 5-HT2A; conditions: fixed 1 nM [3H]ketanserin; for competition binding curve result (binding / no binding): psilocin 30 pM to 10 μM, tryptophan 3 nM to 1 mM, FIGS. 14C, 14D
T2 construct: purchased PerkinElmer ES-313-M400UA
T2 sequence (P28223 whole entry): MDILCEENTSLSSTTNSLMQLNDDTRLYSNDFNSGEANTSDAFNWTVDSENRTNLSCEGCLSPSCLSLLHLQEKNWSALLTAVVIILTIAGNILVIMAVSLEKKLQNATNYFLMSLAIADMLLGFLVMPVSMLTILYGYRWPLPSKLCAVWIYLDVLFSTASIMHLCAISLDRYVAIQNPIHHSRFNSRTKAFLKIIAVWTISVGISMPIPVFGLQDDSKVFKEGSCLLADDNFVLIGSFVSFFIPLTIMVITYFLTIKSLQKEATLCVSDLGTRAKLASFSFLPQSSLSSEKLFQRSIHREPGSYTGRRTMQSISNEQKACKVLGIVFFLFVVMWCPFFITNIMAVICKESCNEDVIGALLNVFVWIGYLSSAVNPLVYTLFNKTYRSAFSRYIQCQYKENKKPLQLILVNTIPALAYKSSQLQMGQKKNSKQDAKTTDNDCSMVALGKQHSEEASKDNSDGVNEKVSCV
From the text: Evaluation of drug binding is an essential step to characterization of all drug-target interactions (Fang 2012, Exp Opin Drug Discov 7:969). The binding affinity of a drug to a target is traditionally viewed as an acceptable surrogate of its in vivo efficacy (Núñez et al., 2012, Drug Disc Today 17: 10). Competition assays, also called displacement or modulation binding assays, are a common approach to measure activity of a ligand at a target receptor (Flanagan 2016, Methods Cell Biol 132: 191). In these assays, standard radioligands acting either as agonists or antagonists are ascribed to specific receptors. In the case of G protein-coupled receptor 5-HT2A, [^3H]ketanserin is a well-established antagonist used routinely in competition assays to evaluate competitive activity of novel drug candidates at the 5-HT2A receptor (Maguire et al., 2012, Methods Mol Biol 897: 31). Thus, to evaluate activity of novel psilocybin derivatives at the 5-HT2A receptor, competition assays using [^3H]ketanserin were employed as follows. SPA beads (RPNQ0010), [^3H] ketanserin (NET1233025UC), membranes containing 5-HT2A (ES-313-M400UA), and isoplate-96 microplate (6005040) were all purchased from PerkinElmer. Radioactive binding assays were carried out using Scintillation Proximity Assay (SPA). […] After incubation, the samples were read on a MicroBeta 2 Microplate Counter (Perkin Elmer). […] Equilibrium binding constants for ketanserin (Kd) were determined from saturation binding curves using the ‘one-site saturation binding analysis’ method of GraphPad PRISM software (Version 9.2.0). […] Ki values were calculated from the competition displacement data using the competitive binding analysis from GraphPad PRISM software. […] Specific binding in counts per minute (cpm) was calculated by subtracting non-specific binding from total binding. Specific binding (pmol/mg) was calculated from pmol of [^3H]ketanserin bound per mg of protein in the assay. The Kd was calculated by fitting the data with the one-site binding model of PRISM software (version 9.2.0). […]

[1] = test system: CHO-K1/Gα15 (−5-HT1A) cells; test: cAMP-Glo assay in −5-HT1A control cells (CHO-K1/Gα15) with 4 μM forskolin; type: cell-based; conditions: for trend of % cAMP levels with decreasing dosage of test molecule: −5HT1A cell cultures, fixed 4 μM forskolin
From the text: as §1, with “The supernatant was discarded, and the cell pellet was then resuspended in another 10 ml of complete growth media, and added to the 10 cm cell culture dish (Greiner Bio-One #664160). The media was changed every third day until the cells were about 90% confluent. The ˜90% confluent cells were then split 10:1 for maintenance or used for experiment.” left out
As 5-HT1A activation inhibits cAMP formation, the agonist activity of test molecules on 5-HT1A was measured via the reduction in the levels of cAMP produced due to application of 4 μM forskolin. The change in intracellular cAMP levels due to the treatment of novel molecules was measured using cAMP-Glo Assay kit (Promega #V1501). […] Reduced ATP caused reduced conversion of luciferin to oxyluciferin, conferring diminished luminescence as the result of 5-HT1A activation. […]

Structure (SMILES) | cAMP / luminescence response to varying dosage of test molecule (5-HT1A receptor) | trend of % cAMP levels with decreasing dosage of test molecule [1] | competition binding curve result (binding / no binding) (5-HT2A receptor) | other results
CN(C)CCc1c[nH]c2ccccc12 [DMT, reference compound] | 5-HT1A activity | – | – | –
CC(=O)NCCc1c[nH]c2cc(CC=C(C)C)ccc12 [compound (IV)] | 5-HT1A modulation activity | not observed | – | modulation of the impact of serotonin on cAMP / luminescence (5-HT1A receptor; +5-HT1A cell cultures, fixed 4 μM forskolin and 10 uM serotonin, FIGS. 14M, 14N): modulated by the presence of compound (IV) in a concentration-dependent manner; specific binding of [3H]ketanserin in competition with test compound (5-HT2A receptor; unlabeled test compound 3 nM to 1 mM, competition not complete, FIGS. 14E, 14F): ~50%; modulation of the impact of serotonin on cAMP / luminescence ([1]; −5-HT1A cell cultures, fixed 4 μM forskolin and 10 uM serotonin, FIGS. 14M, 14N): not notable
CN(C)CCc1c[nH]c2cccc(O)c12 [psilocin] | – | – | binding | –
NCCc1c[nH]c2ccc(O)cc12 [serotonin, reference compound] | 5-HT1A binding activity | not observed | – | –
N[C@@H](Cc1c[nH]c2ccccc12)C(=O)O [tryptophan] | – | – | no binding | –
